The source made the active and inactive calls. The rule behind the calls is not given here.
Tested on: not listed separately
Assay: Anticancer activity against peroxynitrite/TPA-induced skin cancer in ICR mouse assessed as average number of papilloma per mouse at 0.187 mg/day, po administered for 2 weeks measured on week 20
Format: functional

With `Oc1cc(O)cc([C@H]2c3c(cc(O)c4c3O[C@H](c3ccc(O)c(O)c3)[C@@H](O)C4)O[C@@H]2c2ccc(O)c(O)c2)c1` [JEZONOCINOL B] the Activity was 3.1.

Tested on: not listed separately
Assay: Anticancer activity against peroxynitrite/TPA-induced skin cancer in ICR mouse assessed as occurrence of papilloma at 0.187 mg/day, po administered for 2 weeks measured on week 11
Format: functional

For `Oc1cc(O)cc([C@H]2c3c(cc(O)c4c3O[C@H](c3ccc(O)c(O)c3)[C@@H](O)C4)O[C@@H]2c2ccc(O)c(O)c2)c1` [JEZONOCINOL B], the Activity was 27%.

Tested on: Mus musculus
Assay: Anticancer activity against peroxynitrite/TPA-induced skin cancer in ICR mouse assessed as delay in tumor promotion at 0.187 mg/day, po administered for 2 weeks
Format: functional, organism-based

With `Oc1cc(O)cc([C@H]2c3c(cc(O)c4c3O[C@H](c3ccc(O)c(O)c3)[C@@H](O)C4)O[C@@H]2c2ccc(O)c(O)c2)c1` [JEZONOCINOL B] the Activity was “Active”.

Tested on: not listed separately
Assay: Antitumor initiating activity in human Chang cells assessed as ratio of inhibition of cellular transformation in presence of NOR1 to compound and NOR1 at 350 nmol treated 1 min before NOR1 addition measured after 1 hr by light microscopy
Format: functional

Compared with `Oc1cc(O)cc(/C=C/c2ccc3c(c2)O[C@H](c2ccc(O)c(O)c2)[C@@H](c2cc(O)cc(O)c2)O3)c1` [CASSIGAROL E], `Oc1ccc(/C=C/c2cc(O)cc3c2[C@H](c2cc(O)cc(O)c2)[C@@H](c2ccc(O)c(O)c2)O3)cc1` [SCIRPUSIN A] is lower in Ratio: 2.1 for the first, 2 for the second.

`CC(=O)Oc1cc(/C=C/c2ccc3c(c2)O[C@H](c2ccc(OC(C)=O)c(OC(C)=O)c2)[C@@H](c2cc(OC(C)=O)cc(OC(C)=O)c2)O3)cc(OC(C)=O)c1` and `CC(=O)Oc1ccc(/C=C/c2cc(OC(C)=O)cc3c2[C@H](c2cc(OC(C)=O)cc(OC(C)=O)c2)[C@@H](c2ccc(OC(C)=O)c(OC(C)=O)c2)O3)cc1` are the same in Ratio: 1.8 for the first, 1.8 for the second.

`COc1cc([C@H]2c3cc(O)c(OC)cc3C[C@@H](CO)[C@@H]2CO)ccc1O` [ISOLARICIRESINOL] and `COc1cc(C[C@H]2CO[C@H](c3ccc(O)c(OC)c3)[C@H]2CO)ccc1O` [LARICIRESINOL] are the same in Ratio: 2 for the first, 2 for the second.

`CC(=O)Oc1cc(OC(C)=O)cc([C@H]2c3c(cc(OC(C)=O)c4c3O[C@H](c3ccc(OC(C)=O)c(OC(C)=O)c3)[C@@H](O)C4)O[C@@H]2c2ccc(OC(C)=O)c(OC(C)=O)c2)c1` and `CC(=O)Oc1cc(OC(C)=O)cc([C@@H]2c3c(cc(OC(C)=O)c4c3O[C@H](c3ccc(OC(C)=O)c(OC(C)=O)c3)[C@@H](O)C4)O[C@H]2c2ccc(OC(C)=O)c(OC(C)=O)c2)c1` are the same in Ratio: 1.9 for the first, 1.9 for the second.

First: O=c1c(O)c(-c2ccc(O)c(O)c2)oc2cc(O)cc(O)c12 [QUERCETIN]
Second: O=C1c2c(O)cc(O)cc2O[C@H](c2ccc(O)c(O)c2)[C@H]1O [(+)-TAXIFOLIN]
The Ratio of the first is higher: 2.9 for the first, 2.5 for the second.

Compared with `Oc1cc(O)cc([C@H]2c3c(/C=C/c4ccc(O)c(O)c4)cc(O)cc3O[C@@H]2c2ccc(O)c(O)c2)c1` [TRANS-SCIRPUSIN B], `Oc1cc(O)cc([C@H]2c3c(cc(O)c4c3O[C@H](c3ccc(O)c(O)c3)[C@@H](O)C4)O[C@@H]2c2ccc(O)c(O)c2)c1` [JEZONOCINOL B] is higher in Ratio: 2.2 for the first, 2.7 for the second.

`O=C(O)c1ccc(O)c(O)c1` [PROTOCATECHUIC ACID] and `O=Cc1ccc(O)c(O)c1` [PROTOCATECHUALDEHYDE] are the same in Ratio: 1.8 for the first, 1.8 for the second.

First: CC(C)c1cc2c(cc1O)[C@@]1(C)CCC[C@@](C)(C(=O)O)[C@@H]1CC2
Second: COc1cc([C@H]2Oc3cc(C(=O)O)ccc3O[C@@H]2CO)ccc1O [3-O-METHYL ISOAMERICANOIC ACID A]
The Ratio of the first is higher: 2 for the first, 1.7 for the second.

Compared with `Oc1cc2c3c(c4cc(O)cc5c4c(c3c1)[C@@H](c1ccc(O)c(O)c1)O5)[C@@H](c1ccc(O)c(O)c1)O2` [JEZONOFOL], `Oc1cc(O)cc([C@@H]2c3c(cc(O)c4c3O[C@H](c3ccc(O)c(O)c3)[C@@H](O)C4)O[C@H]2c2ccc(O)c(O)c2)c1` [JEZONOCINOL A] is higher in Ratio: 2.3 for the first, 2.7 for the second.

First: CC(=O)Oc1cc(OC(C)=O)c2c(c1)[C@@H]1C3C(=CC(=O)C[C@H]1c1ccc(OC(C)=O)c(OC(C)=O)c1)O[C@H](c1ccc(OC(C)=O)c(OC(C)=O)c1)[C@@H](O)[C@H]23 (stereo not given in full)
Second: CC(=O)Oc1cc(OC(C)=O)cc([C@H]2c3c(/C=C/c4ccc(OC(C)=O)c(OC(C)=O)c4)cc(OC(C)=O)cc3O[C@@H]2c2ccc(OC(C)=O)c(OC(C)=O)c2)c1
The Ratio of the first is lower: 1.8 for the first, 1.9 for the second.

Going from `O=C(O)/C=C/c1ccc(O)cc1` [COUMARIC ACID] to `COc1cc(/C=C/C(=O)CC(=O)/C=C/c2ccc(O)c(OC)c2)ccc1O` [CURCUMIN], the Ratio rises from 1.9 to 2.1.

Compared with `COc1cc(/C=C2/C(=O)O[C@H](c3ccc(O)c(O)c3)[C@H]2c2cc(O)cc(O)c2)ccc1O` [JEZONOLIDE], `O=C1C=C(/C=C/c2ccc(O)c(O)c2)[C@@H]2C(=O)[C@H]1[C@H](c1ccc(O)c(O)c1)[C@H]2c1cc(O)cc(O)c1` [JEZONODIONE] is higher in Ratio: 2.1 for the first, 2.2 for the second.

First: Oc1cc(O)cc(/C=C/c2ccc(O)c(O)c2)c1 [PICEATANNOL]
Second: O=C1C=C2O[C@H](c3ccc(O)c(O)c3)[C@@H](O)[C@@H]3c4c(O)cc(O)cc4[C@H](C23)[C@H](c2ccc(O)c(O)c2)C1 (stereo not given in full) [JEZONOCINOL C]
The Ratio of the first is lower: 2 for the first, 2.3 for the second.

Work on `COc1cc([C@@H]2Oc3c(OC)cc(CCCO)cc3[C@H]2CO)ccc1O` [DIHYDRODEHYDRODICONIFERYL ALCOHOL] yielded a Ratio of 1.8.
